Test results: PubChem BioAssay AID258 (DTP/NCI, 2004)
“And” between values parts separate entries of the source, which are not always exact repeats. Equal entries are not always repeated. Inconclusive results and toxic doses are left out.

Test system: CD2F1 mice, L1210 leukemia sc, survival T/C
Experiment: NCI In Vivo Anticancer Drug Screen. Data for tumor model L1210 Leukemia (subcutaneous) in CD2F1 (CDF1) mice
Details: higher = longer survival
In short: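 Antitumor activity is scored in tumor-bearing mice by comparing survival or tumor size of treated animals against vehicle-treated controls, reported as T/C.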

CN(Cc1cnc2nc(N)nc(N)c2n1)c1ccc(C(=O)N[C@@H](CCC(=O)O)C(=O)O)cc1 was tested, and the T/C (endpoint: mean survival time, dose: 1.08 mg/kg/injection, schedule: Q01DX009 (sc), vehicle: other) was 170 % of control, the T/C (endpoint: mean survival time, dose: 1.8 mg/kg/injection, schedule: Q01DX009 (sc), vehicle: other) was 158 % of control and the T/C (endpoint: mean survival time, dose: 3.0 mg/kg/injection, schedule: Q01DX009 (sc), vehicle: other) was 168 % of control. The T/C (endpoint: mean survival time, dose: 5.0 mg/kg/injection, schedule: Q01DX017 (sc), vehicle: other) was 124 % of control, the T/C (endpoint: median survival time, dose: 0.08 mg/kg/injection, schedule: Q## X Z (sc), vehicle: other) was 155 % of control and the T/C (endpoint: median survival time, dose: 0.1 mg/kg/injection, schedule: Q#A X Z (oral), vehicle: other) was 104 % of control. For the same molecule, the T/C (endpoint: median survival time, dose: 0.1 mg/kg/injection, schedule: Q#A X Z (sc), vehicle: other) was 122 % of control, the T/C (endpoint: median survival time, dose: 0.14 mg/kg/injection, schedule: Q## X Z (sc), vehicle: other) was 155 % of control and the T/C (endpoint: median survival time, dose: 0.16 mg/kg/injection, schedule: Q#A X Z (oral), vehicle: other) was 109 % of control. For the same molecule, the T/C (endpoint: median survival time, dose: 0.23 mg/kg/injection, schedule: Q#A X Z (sc), vehicle: other) was 122 % of control, the T/C (endpoint: median survival time, dose: 0.25 mg/kg/injection, schedule: Q01DX Z (sc), vehicle: other) was 112 % of control and 116 % of control and the T/C (endpoint: median survival time, dose: 0.27 mg/kg/injection, schedule: Q01DX Z (oral), vehicle: other) was 109 % of control. The T/C (endpoint: median survival time, dose: 0.27 mg/kg/injection, schedule: Q#A X Z (oral), vehicle: other) was 122 % of control, the T/C (endpoint: median survival time, dose: 0.3 mg/kg/injection, schedule: Q01DX Z (sc), vehicle: sodium bicarbonate) was 111 % of control and the T/C (endpoint: median survival time, dose: 0.38 mg/kg/injection, schedule: Q01DX009 (ip), vehicle: sodium bicarbonate) was 108 % of control. For the same molecule, the T/C (endpoint: median survival time, dose: 0.39 mg/kg/injection, schedule: Q01DX Z (ip), vehicle: other) was 115 % of control, the T/C (endpoint: median survival time, dose: 0.39 mg/kg/injection, schedule: Q01DX Z (iv), vehicle: other) was 105 % of control and the T/C (endpoint: median survival time, dose: 0.39 mg/kg/injection, schedule: Q01DX Z (oral), vehicle: other) was 100 % of control. The T/C (endpoint: median survival time, dose: 0.39 mg/kg/injection, schedule: Q02DX Z (sc), vehicle: other) was 111 % of control, the T/C (endpoint: median survival time, dose: 0.45 mg/kg/injection, schedule: Q01DX Z (oral), vehicle: other) was 100 % of control and the T/C (endpoint: median survival time, dose: 0.45 mg/kg/injection, schedule: Q#A X Z (sc), vehicle: other) was 159 % of control. The T/C (endpoint: median survival time, dose: 0.47 mg/kg/injection, schedule: Q01DX Z (oral), vehicle: other) was 111 % of control, the T/C (endpoint: median survival time, dose: 0.48 mg/kg/injection, schedule: Q01DX Z (oral), vehicle: other) was 100 % of control and the T/C (endpoint: median survival time, dose: 0.5 mg/kg/injection, schedule: Q01DX009 (ip), vehicle: sodium bicarbonate) was 112 % of control. For the same molecule, the T/C (endpoint: median survival time, dose: 0.62 mg/kg/injection, schedule: Q01DX Z (sc), vehicle: other) was 160 % of control, the T/C (endpoint: median survival time, dose: 0.65 mg/kg/injection, schedule: Q01DX009 (sc), vehicle: other) was 152 % of control and the T/C (endpoint: median survival time, dose: 0.65 mg/kg/injection, schedule: Q01DX009 (sc), vehicle: sodium bicarbonate) was 150 % of control. For the same molecule, the T/C (endpoint: median survival time, dose: 0.65 mg/kg/injection, schedule: Q01DX Z (iv), vehicle: other) was 111 % of control, the T/C (endpoint: median survival time, dose: 0.65 mg/kg/injection, schedule: Q01DX Z (oral), vehicle: other) was 105 % of control and the T/C (endpoint: median survival time, dose: 0.65 mg/kg/injection, schedule: Q02DX Z (sc), vehicle: other) was 105 % of control. For the same molecule, the T/C (endpoint: median survival time, dose: 0.65 mg/kg/injection, schedule: Q## X Z (sc), vehicle: other) was 122 % of control, the T/C (endpoint: median survival time, dose: 0.65 mg/kg/injection, schedule: Q#A X Z (sc), vehicle: other) was 161 % of control and the T/C (endpoint: median survival time, dose: 0.75 mg/kg/injection, schedule: Q01DX009 (ip), vehicle: sodium bicarbonate) was 113 % of control. For the same molecule, the T/C (endpoint: median survival time, dose: 0.75 mg/kg/injection, schedule: Q01DX Z (ip), vehicle: water) was 175 % of control, the T/C (endpoint: median survival time, dose: 0.76 mg/kg/injection, schedule: Q01DX Z (oral), vehicle: other) was 122 % of control and the T/C (endpoint: median survival time, dose: 0.76 mg/kg/injection, schedule: Q#A X Z (oral), vehicle: other) was 150 % of control. For the same molecule, the T/C (endpoint: median survival time, dose: 0.79 mg/kg/injection, schedule: Q01DX Z (oral), vehicle: other) was 105 % of control, the T/C (endpoint: median survival time, dose: 1.08 mg/kg/injection, schedule: Q01DX009 (sc), vehicle: sodium bicarbonate) was 171 % of control and the T/C (endpoint: median survival time, dose: 1.08 mg/kg/injection, schedule: Q01DX Z (oral), vehicle: other) was 110 % of control. The T/C (endpoint: median survival time, dose: 1.25 mg/kg/injection, schedule: Q01DX Z (sc), vehicle: other) was 180 % of control, the T/C (endpoint: median survival time, dose: 1.26 mg/kg/injection, schedule: Q01DX Z (oral), vehicle: other) was 168 % of control and 181 % of control and the T/C (endpoint: median survival time, dose: 1.26 mg/kg/injection, schedule: Q01DX Z (sc), vehicle: other) was 181 % of control. The T/C (endpoint: median survival time, dose: 1.26 mg/kg/injection, schedule: Q#A X Z (oral), vehicle: other) was 118 % of control, the T/C (endpoint: median survival time, dose: 1.3 mg/kg/injection, schedule: Q01DX Z (oral), vehicle: other) was 166 % of control and the T/C (endpoint: median survival time, dose: 1.31 mg/kg/injection, schedule: Q01DX Z (oral), vehicle: other) was 111 % of control. The T/C (endpoint: median survival time, dose: 1.4 mg/kg/injection, schedule: Q01DX Z (sc), vehicle: sodium bicarbonate) was 183 % of control, the T/C (endpoint: median survival time, dose: 1.8 mg/kg/injection, schedule: Q01DX009 (sc), vehicle: other) was 161 % of control and the T/C (endpoint: median survival time, dose: 1.8 mg/kg/injection, schedule: Q01DX009 (sc), vehicle: sodium bicarbonate) was 174 % of control and 177 % of control. The T/C (endpoint: median survival time, dose: 1.8 mg/kg/injection, schedule: Q01DX Z (ip), vehicle: other) was 175 % of control, the T/C (endpoint: median survival time, dose: 1.8 mg/kg/injection, schedule: Q## X Z (sc), vehicle: other) was 111 % of control and the T/C (endpoint: median survival time, dose: 2.0 mg/kg/injection, schedule: Q01DX Z (sc), vehicle: other) was 175 % of control and 177 % of control and 183 % of control. The T/C (endpoint: median survival time, dose: 2.08 mg/kg/injection, schedule: Q01DX Z (sc), vehicle: other) was 170 % of control, the T/C (endpoint: median survival time, dose: 2.1 mg/kg/injection, schedule: Q01DX Z (oral), vehicle: other) was 163 % of control and the T/C (endpoint: median survival time, dose: 2.1 mg/kg/injection, schedule: Q01DX Z (sc), vehicle: other) was 168 % of control. For the same molecule, the T/C (endpoint: median survival time, dose: 2.33 mg/kg/injection, schedule: Q01DX Z (sc), vehicle: sodium bicarbonate) was 155 % of control, the T/C (endpoint: median survival time, dose: 2.5 mg/kg/injection, schedule: Q01DX Z (sc), vehicle: other) was 155 % of control and the T/C (endpoint: median survival time, dose: 3.0 mg/kg/injection, schedule: Q01DX009 (ip), vehicle: saline with Tween-80) was 173 % of control. The T/C (endpoint: median survival time, dose: 3.0 mg/kg/injection, schedule: Q01DX009 (sc), vehicle: other) was 179 % of control, the T/C (endpoint: median survival time, dose: 3.0 mg/kg/injection, schedule: Q01DX009 (sc), vehicle: sodium bicarbonate) was 183 % of control and the T/C (endpoint: median survival time, dose: 3.0 mg/kg/injection, schedule: Q01DX Z (ip), vehicle: other) was 150 % of control. The T/C (endpoint: median survival time, dose: 3.0 mg/kg/injection, schedule: Q01DX Z (ip), vehicle: sodium bicarbonate) was 105 % of control, the T/C (endpoint: median survival time, dose: 3.0 mg/kg/injection, schedule: Q01DX Z (ip), vehicle: water) was 120 % of control and the T/C (endpoint: median survival time, dose: 3.0 mg/kg/injection, schedule: Q01DX Z (iv), vehicle: other) was 155 % of control. The T/C (endpoint: median survival time, dose: 3.0 mg/kg/injection, schedule: Q01DX Z (oral), vehicle: other) was 170 % of control, the T/C (endpoint: median survival time, dose: 3.0 mg/kg/injection, schedule: Q## X Z (sc), vehicle: other) was 111 % of control and the T/C (endpoint: median survival time, dose: 3.25 mg/kg/injection, schedule: Q01DX Z (sc), vehicle: other) was 158 % of control. The T/C (endpoint: median survival time, dose: 3.47 mg/kg/injection, schedule: Q01DX Z (sc), vehicle: other) was 150 % of control, the T/C (endpoint: median survival time, dose: 3.5 mg/kg/injection, schedule: Q01DX Z (sc), vehicle: other) was 163 % of control and the T/C (endpoint: median survival time, dose: 3.5 mg/kg/injection, schedule: Q03DX Z (oral), vehicle: other) was 100 % of control. The T/C (endpoint: median survival time, dose: 3.5 mg/kg/injection, schedule: Q#A X Z (oral), vehicle: other) was 109 % of control, the T/C (endpoint: median survival time, dose: 4.0 mg/kg/injection, schedule: Q01DX009 (ip), vehicle: saline with Tween-80) was 168 % of control and the T/C (endpoint: median survival time, dose: 4.0 mg/kg/injection, schedule: Q01DX009 (ip), vehicle: saline) was 184 % of control. The T/C (endpoint: median survival time, dose: 4.0 mg/kg/injection, schedule: Q01DX Z (sc), vehicle: other) was 150 % of control and 155 % of control, the T/C (endpoint: median survival time, dose: 5.0 mg/kg/injection, schedule: Q01DX009 (sc), vehicle: sodium bicarbonate) was 116 % of control and 120 % of control and the T/C (endpoint: median survival time, dose: 5.0 mg/kg/injection, schedule: Q01DX017 (sc), vehicle: other) was 122 % of control. For the same molecule, the T/C (endpoint: median survival time, dose: 5.0 mg/kg/injection, schedule: Q## X Z (sc), vehicle: other) was 111 % of control, the T/C (endpoint: median survival time, dose: 5.83 mg/kg/injection, schedule: Q01DX Z (oral), vehicle: other) was 118 % of control and the T/C (endpoint: median survival time, dose: 5.83 mg/kg/injection, schedule: Q03DX Z (oral), vehicle: other) was 100 % of control. The T/C (endpoint: median survival time, dose: 8.33 mg/kg/injection, schedule: Q01DX Z (iv), vehicle: other) was 120 % of control, the T/C (endpoint: median survival time, dose: 8.33 mg/kg/injection, schedule: Q01DX Z (oral), vehicle: other) was 150 % of control and the T/C (endpoint: median survival time, dose: 8.4 mg/kg/injection, schedule: Q## X Z (sc), vehicle: other) was 122 % of control. For the same molecule, the T/C (endpoint: median survival time, dose: 9.72 mg/kg/injection, schedule: Q01DX Z (oral), vehicle: other) was 118 % of control, the T/C (endpoint: median survival time, dose: 14.0 mg/kg/injection, schedule: Q## X Z (sc), vehicle: other) was 122 % of control and the T/C (endpoint: median survival time, dose: 16.2 mg/kg/injection, schedule: Q03DX Z (oral), vehicle: other) was 113 % of control. The T/C (endpoint: median survival time, dose: 23.0 mg/kg/injection, schedule: Q01DX001 (sc), vehicle: other) was 122 % of control, the T/C (endpoint: median survival time, dose: 23.0 mg/kg/injection, schedule: Q## X Z (sc), vehicle: other) was 122 % of control and the T/C (endpoint: median survival time, dose: 65.0 mg/kg/injection, schedule: Q07DX Z (sc), vehicle: other) was 150 % of control. The T/C (endpoint: median survival time, dose: 108.0 mg/kg/injection, schedule: Q01DX001 (sc), vehicle: other) was 122 % of control, the T/C (endpoint: median survival time, dose: 108.0 mg/kg/injection, schedule: Q07DX Z (sc), vehicle: other) was 122 % of control and the T/C (endpoint: median survival time, dose: 180.0 mg/kg/injection, schedule: Q01DX001 (sc), vehicle: other) was 116 % of control. The T/C (endpoint: median survival time, dose: 400.0 mg/kg/injection, schedule: Q01DX009 (ip), vehicle: sodium bicarbonate) was 158 % of control.
